Measured values published in patent US6787530B1, “Use of pregnane-diones as analgesic agents” (priority 1996, dated 2004).
“Also recorded” adds a separate entry of the source.

Columns and labels:
[1] = test system: spinal cord GABAA receptors; assay type: in vivo, rat
Source text: (§1) Groups of 10 rats were examined for the duration of the loss of righting reflex and loss of coordination in the rotarod test and also for antinociceptive effects in the electrical current threshold test measured in the tail. […] Thus we were able to compare the duration of sedation and anaesthesia and quantity of antinociception following intraperitoneal administration of the neurosteroid mixture and also following the components of the mixture at the doses which were given when the combination was used.
Rats were given a range of doses of alphadolone from 0.1 to 100 mg/kg intraperitoneally. The antinociceptive effect was measured using electrical current in the tail.

[2] = test system: rats; assay: Loss of righting reflex and loss of coordination in the rotarod test after intraperitoneal dosing
Source text: as §1
We have gone on to test the ability for alphadolone to produce sedation. We have given doses up to […] intraperitoneally of alphadolone.

[3] = 0.1 to 100 mg/kg intraperitoneally, rats
[4] = ip, Saffan 2 ml/kg, alphaxalone 18 mg/kg, alphadolone 6 mg/kg, groups of 10 rats

## CC(=O)OCC(=O)[C@H]1CC[C@H]2[C@@H]3CC[C@H]4C[C@H](O)CC[C@]4(C)[C@H]3C(=O)C[C@]12C [alphadolone, 21-acetoxy-3alpha-hydroxy-5alpha-pregnane-11,20-dione]
[1]; [3]
  dose response of antinociceptive effect (electrical current in the tail): dose-related increase in antinociceptive effect
[1]; [4]
  antinociceptive effects in the electrical current threshold test measured in the tail: all of the antinociceptive effects of the Saffan mixture could be achieved with alphadolone alone
[2]; [3]
  sedative effects: No sedative effects were observed
[2]; doses up to 300 mg/kg intraperitoneally (b128 prints 300 mg/g), rats
  sedation, loss of coordination, abnormal behaviour: no sedative effects whatsoever; also recorded: no evidence of sedation or loss of coordination
[2]; [4]
  sedation and anaesthesia (loss of righting reflex, loss of coordination in rotarod test): no sedation or loss of righting reflex
